From US4352803A, “Novel naphthyridine derivatives, intermediates thereof, processes for preparation thereof, and use thereof” (Dainippon Pharmaceutical Co., Ltd., priority 1978, dated 1982)
In brackets after ≈: the same amount, converted by molar mass. Structures can show the parent of a compound that is named as a salt. Where two headings read alike, the source gives them in different places.

Experiments:
Proteus mirabilis P-2381 = experiment: In vitro antibacterial activity (MIC), Proteus mirabilis P-2381; type: cell-based
Description: (§1) (MIC) (μg/ml) Method; Chemotherapy, 22(6), 1126 (1974)

[1] = test system: Serratia marcescens IFC 3736; experiment: In vitro antibacterial activity (MIC), Serratia marcescens IFC 3736; type: cell-based
Description: as §1

[2] = test system: Shigella flexneri 4a P-330; experiment: In vitro antibacterial activity (MIC), Shigella flexneri 4a P-330; type: cell-based; conditions: 4AP330, read-out: minimum inhibitory concentration (MIC)
Description: as §1

Proteus morganii Kono = experiment: In vitro antibacterial activity (MIC), Proteus morganii Kono; type: cell-based; conditions: Morganella morganii, read-out: minimum inhibitory concentration (MIC)
Description: as §1

[3] = test system: Salmonella enteritidis No. 1891; experiment: In vitro antibacterial activity (MIC), Salmonella enteritidis No. 1891; type: cell-based; conditions: Salmonella enterica, read-out: minimum inhibitory concentration (MIC)
Description: as §1

[4] = test system: Salmonella typhimurium 8-9; experiment: In vitro antibacterial activity (MIC), Salmonella typhimurium 8-9; type: cell-based; conditions: Salmonella enterica, read-out: minimum inhibitory concentration (MIC)
Description: as §1

[5] = test system: Staphylococcus aureus No. 50774; experiment: In vitro antibacterial activity (MIC), Staphylococcus aureus No. 50774; type: cell-based
Description: as §1

[6] = test system: Staphylococcus aureus 209P JC-1; experiment: In vitro antibacterial activity (MIC), Staphylococcus aureus 209P JC-1; type: cell-based; conditions: read-out: minimum inhibitory concentration (MIC)
Description: as §1

[7] = test system: Pseudomonas aeruginosa Tsuchijima; experiment: In vitro antibacterial activity (MIC), Pseudomonas aeruginosa Tsuchijima; type: cell-based; conditions: Pseudomonas aeruginosa, read-out: minimum inhibitory concentration (MIC)
Description: as §1

Escherichia coli P-5101 [8] = experiment: In vitro antibacterial activity (MIC), Escherichia coli P-5101; type: cell-based; conditions: Escherichia coli, P5101, read-out: minimum inhibitory concentration (MIC)
Description: as §1

Escherichia coli P-140a = experiment: In vitro antibacterial activity (MIC), Escherichia coli P-140a; type: cell-based; conditions: read-out: minimum inhibitory concentration (MIC)
Description: as §1

[9] = test system: Staphylococcus aureus No. 50774; experiment: in vivo efficacy against systemic infection in mice, Staphylococcus aureus No. 50774; conditions: NO.50774, in Mus musculus, po, 336 h
Experimental: Male mice (ddY) weighing about 20 g
Intravenous infection with (about
5 × 10^8 cells/mouse) of a bacterial
(§2) Twice, about 5 minutes and 6 hours after infection.

[10] = test system: Pseudomonas aeruginosa No. 12; experiment: In vitro antibacterial activity (MIC), Pseudomonas aeruginosa No. 12; type: cell-based
Description: as §1

[11] = test system: Streptococcus pyogenes 65A; experiment: In vitro antibacterial activity (MIC), Streptococcus pyogenes 65A; type: cell-based; conditions: read-out: minimum inhibitory concentration (MIC)
Description: as §1

[12] = test system: Klebsiella pneumoniae No. 13; experiment: In vitro antibacterial activity (MIC), Klebsiella pneumoniae No. 13; type: cell-based
Description: as §1

[13] = test system: Corynebacterium pyogenes C-21; experiment: In vitro antibacterial activity (MIC), Corynebacterium pyogenes C-21; type: cell-based; conditions: Rhodococcus (subgen. Prescottella) equi
Description: as §1

[14] = test system: Streptococcus faecalis P-2473; experiment: In vitro antibacterial activity (MIC), Streptococcus faecalis P-2473; type: cell-based; conditions: Enterococcus faecalis
Description: as §1

[15] = test system: Escherichia coli NIHJ JC-2; experiment: In vitro antibacterial activity (MIC), Escherichia coli NIHJ JC-2; type: cell-based; conditions: Escherichia coli, NIHJJC2, read-out: minimum inhibitory concentration (MIC)
Description: as §1

[16] = test system: Enterobacter cloacae P-2540; experiment: In vitro antibacterial activity (MIC), Enterobacter cloacae P-2540; type: cell-based
Description: as §1

Escherichia coli P-5101 [17] = experiment: in vivo efficacy against systemic infection in mice, Escherichia coli P-5101; conditions: P5101, in Mus musculus, po, 168 h
Experimental: Male mice (ddY) weighing about 20 g
Intraperitoneal infection with (about
9 × 10^6 cells/mouse) of a bacterial
(§3) suspension in trypto-soy broth with 4% mucin.
as §2

[18] = test system: Pseudomonas aeruginosa No. 12; experiment: in vivo efficacy against systemic infection in mice, Pseudomonas aeruginosa No. 12; conditions: NO.12, in Mus musculus, po, 168 h
Experimental: Male mice (ddY) weighing about 20 g
(3) Pseudomonas aeruginosa No. 12;
(about 5 × 10^3 cells/mouse) of a bacterial
as §3, §2
The numerals in the table show ED50 (mg/kg). ED50 values were

Shigella flexneri 2a = experiment: In vitro antibacterial activity (MIC), Shigella flexneri 2a; type: cell-based; conditions: read-out: minimum inhibitory concentration (MIC)
Description: as §1

in vivo = conditions: mouse, in vivo, po
Experimental: The number of dead mice was counted after 7 days, and the value of median lethal dose (LD50, mg/kg) was calculated in accordance with the Behrens-Kaerber method.

[19] = test system: Gram-positive and Gram-negative bacteria; experiment: in vivo therapeutic efficacy against systemic infections in mice (overall); design: species or system mice (ddY)
[20] = IFC3736, Serratia marcescens IFC 3736, read-out: minimum inhibitory concentration (MIC)
[21] = Salmonella enteritidis No. 1891
[22] = Staphylococcus aureus No. 50774, read-out: minimum inhibitory concentration (MIC)
[23] = Staphylococcus aureus 209P JC-1
[24] = Klebsiella pneumoniae No. 13, read-out: minimum inhibitory concentration (MIC)
[25] = C21, Corynebacterium pyogenes C-21, read-out: minimum inhibitory concentration (MIC)
[26] = P2473, Streptococcus faecalis P-2473, read-out: minimum inhibitory concentration (MIC)
[27] = P2540, Enterobacter cloacae P-2540, read-out: minimum inhibitory concentration (MIC)
[28] = Proteus mirabilis, P2381, read-out: minimum inhibitory concentration (MIC)
[29] = Pseudomonas aeruginosa, NO.12, read-out: minimum inhibitory concentration (MIC)

Structure (SMILES)	MIC [1, 20] [µg/mL]	MIC [2] [µg/mL]	MIC (Proteus morganii Kono; Proteus morganii Kono) [µg/mL]	MIC [3, 21] [µg/mL]	MIC ([4]; Salmonella typhimurium 8-9) [µg/mL]	MIC [5, 22] [µg/mL]	MIC [6, 23] [µg/mL]	MIC [7] [µg/mL]	MIC (Escherichia coli P-5101 [8]) [µg/mL]	MIC (Escherichia coli P-140a; P140A, Escherichia coli P-140a) [µg/mL]	ED50 [9] [mg/kg]	MIC ([11]; Streptococcus pyogenes 65A) [µg/mL]	MIC [12, 24] [µg/mL]	MIC [13, 25] [µg/mL]	MIC [14, 26] [µg/mL]	MIC [15] [µg/mL]	MIC [16, 27] [µg/mL]	ED50 (Escherichia coli P-5101 [17]) [mg/kg]	ED50 [18] [mg/kg]	MIC (Shigella flexneri 2a) [µg/mL]	also measured
CC1(C)S[C@@H]2[C@H](NC(=O)C(C(=O)Oc3ccc4c(c3)CCC4)c3ccccc3)C(=O)N2[C@H]1C(=O)O (stereo partly drawn) [G, α-(5-Indanyloxycarbonyl)benzylpenicillin sodium salt]	3.13	6.25	0.78	0.78	0.78	0.78	0.39	6.25	6.25	50	10 to 40	0.2	> 200	3.13	50	6.25	3.13	100	202	12.5	MIC (Proteus mirabilis P-2381; P2381, Proteus mirabilis P-2381, read-out: minimum inhibitory concentration (MIC)): 0.78 µg/mL; MIC ([10]; Pseudomonas aeruginosa No. 12, read-out: minimum inhibitory concentration (MIC)): 50 µg/mL
CC1(C)S[C@@H]2[C@H](NC(=O)[C@H](N)c3ccccc3)C(=O)N2[C@H]1C(=O)O [H, D-α-Aminobenzylpenicillin]	25 (≈ 71.5 µM)	6.25 (≈ 17.9 µM)	100 (≈ 286 µM)	0.2 (≈ 0.572 µM)	0.39 (≈ 1.12 µM)	0.1 (≈ 0.286 µM)	0.05 (≈ 0.143 µM)	> 200	6.25 (≈ 17.9 µM)	200 (≈ 572 µM)	2.2	0.025 (≈ 0.0715 µM)	100 (≈ 286 µM)	1.56 (≈ 4.46 µM)	1.56 (≈ 4.46 µM)	6.25 (≈ 17.9 µM)	> 200	43.5	> 400	3.13 (≈ 8.96 µM)	MIC (Proteus mirabilis P-2381; [28]): 3.13 µg/mL (≈ 8.96 µM); LD50 at 168 h (in vivo): > 5000 mg/kg; MIC [10, 29]: > 200 µg/mL; therapeutic effects in vivo against Gram-negative bacteria, relative to compounds 1, 1' and 2 ([19]; Gram-negative, particularly Pseudomonas aeruginosa): clearly inferior
CC1=C(C(=O)O)N2C(=O)[C@@H](NC(=O)[C@H](N)c3ccccc3)[C@H]2SC1 [J, 7-(D-α-Aminophenylacetamido)desacetoxycephalosporanic acid]	–	200 (≈ 576 µM)	–	–	–	–	–	> 200	12.5 (≈ 36 µM)	–	12.1	–	–	–	–	12.5 (≈ 36 µM)	–	22.6	> 400	12.5 (≈ 36 µM)	MIC (Proteus mirabilis P-2381; [28]): 12.5 µg/mL (≈ 36 µM); MIC ([1]; Serratia marcescens, IFC3736, read-out: minimum inhibitory concentration (MIC)): > 200 µg/mL; MIC (Proteus morganii Kono): > 200 µg/mL; MIC ([3]; ENTERITIDIS): 3.13 µg/mL (≈ 9.01 µM); MIC ([4]; TYPHIMURIUM): 6.25 µg/mL (≈ 18 µM); MIC ([5]; Staphylococcus aureus, NO.50774, read-out: minimum inhibitory concentration (MIC)): 1.56 µg/mL (≈ 4.49 µM); MIC ([6]; Staphylococcus aureus, 209P): 1.56 µg/mL (≈ 4.49 µM); MIC (Escherichia coli P-140a; Escherichia coli): > 200 µg/mL; MIC [10, 29]: > 200 µg/mL; MIC ([11]; Streptococcus pyogenes, 65A): 0.78 µg/mL (≈ 2.25 µM); MIC ([12]; Klebsiella pneumoniae, NO.13, read-out: minimum inhibitory concentration (MIC)): 6.25 µg/mL (≈ 18 µM); MIC ([13]; C21, read-out: minimum inhibitory concentration (MIC)): 1.56 µg/mL (≈ 4.49 µM); MIC ([14]; P2473, read-out: minimum inhibitory concentration (MIC)): 200 µg/mL (≈ 576 µM); MIC ([16]; Enterobacter cloacae, P2540, read-out: minimum inhibitory concentration (MIC)): > 200 µg/mL
CCOC(=O)c1cn(CC)c2nc(N3CCNCC3)c(F)cc2c1=O [ethyl ester of compound 1, Ethyl 1-ethyl-6-fluoro-1,4-dihydro-4-oxo-7-(1-piperazinyl)-1,8-naphthyridine-3-carboxylate]	–	–	–	–	–	–	–	–	–	–	~20	–	–	–	–	–	–	–	21	–	therapeutic effect / in vivo antibacterial activity (in words) ([19]; systemic infections with Gram-positive and Gram-negative bacteria): superior antibacterial activity in vivo
